Measurements published in patent US20220073554A1, “LINCOSAMIDE ANTIBIOTICS AND USES THEREOF” (President and Fellows of Harvard College, priority 2017, published 2022).
Where two headings read alike, the source gives them in different places.

What was measured:
Assay type in all cases: cell-based
[1] = test system: E. coli ATCC 25922; test: MIC against E. coli ATCC 25922; conditions: Escherichia coli, ATCC25922
[2] = test system: S. aureus BAA 977 iErmA; test: MIC against S. aureus BAA 977 iErmA; conditions: Staphylococcus aureus, BAA977
[3] = test system: E. coli MMX 0121 ΔTolC; test: MIC against E. coli MMX 0121 ΔTolC; conditions: Escherichia coli
[4] = test system: K. pneumoniae ATCC 10031; test: MIC against K. pneumoniae ATCC 10031; conditions: Klebsiella pneumoniae, ATCC10031
[5] = test system: S. pyogenes ATCC 19615; test: MIC against S. pyogenes ATCC 19615; conditions: Streptococcus pyogenes, ATCC19615; S. pyogenes ATCC 19615; read-out: MIC
[6] = test system: P. aeruginosa MMX Mex parent strain; test: MIC against P. aeruginosa MMX Mex parent strain; conditions: Pseudomonas aeruginosa
[7] = test system: S. aureus MMX 3035 cErmA; test: MIC against S. aureus MMX 3035 cErmA; conditions: Staphylococcus aureus, MMX3035CERMA; S. aureus MMX 3035 cErmA; read-out: MIC
[8] = test system: E. coli MMX TolC parent strain; test: MIC against E. coli MMX TolC parent strain; conditions: Escherichia coli
[9] = test system: C. difficile BAA 1805; test: MIC against C. difficile BAA 1805; conditions: Clostridioides difficile, BAA1805
[10] = test system: E. faecalis MMX 847 Macrolide-Resistant; test: MIC against E. faecalis MMX 847 Macrolide-Resistant; conditions: Enterococcus faecalis
[11] = test system: H. influenzae ATCC 49247; test: MIC against H. influenzae ATCC 49247; conditions: Haemophilus influenzae, ATCC49247; H. influenzae ATCC 49247; read-out: MIC
[12] = test system: P. aeruginosa ATCC 27853; test: MIC against P. aeruginosa ATCC 27853; conditions: Pseudomonas aeruginosa, ATCC27853
[13] = test system: S. pyogenes MMX 946 Macrolide-Resistant; test: MIC against S. pyogenes MMX 946 Macrolide-Resistant; conditions: Streptococcus pyogenes; S. pyogenes MMX 946 Macrolide-Resistant (MacRes); read-out: MIC
[14] = test system: S. pneumoniae MMX 3028 cErmB; test: MIC against S. pneumoniae MMX 3028 cErmB; conditions: Streptococcus pneumoniae, MMX3028CERMB; S. pneumoniae MMX 3028 cErmB; read-out: MIC
[15] = test system: S. pneumoniae ATCC 49619; test: MIC against S. pneumoniae ATCC 49619; conditions: Streptococcus pneumoniae, ATCC49619; S. pneumoniae ATCC 49619; read-out: MIC
[16] = test system: S. pneumoniae MMX 3031 cMefA; test: MIC against S. pneumoniae MMX 3031 cMefA; conditions: Streptococcus pneumoniae, MMX3031CMEFA
[17] = test system: E. coli ATCC 15922; test: MIC against E. coli ATCC 15922; conditions: Escherichia coli, ATCC15922
[18] = test system: B. fragilis ATCC 25285; test: MIC against B. fragilis ATCC 25285; conditions: Bacteroides fragilis, ATCC25285; B. fragilis ATCC 25285; read-out: MIC
[19] = test system: S. aureus MP-549 msr(a) USA 300; test: MIC against S. aureus MP-549 msr(a) USA 300; conditions: Staphylococcus aureus, USA300, S. aureus MP-549 msr(a) USA 300
[20] = test system: P. aeruginosa MMX 3476 Δmex; test: MIC against P. aeruginosa MMX 3476 Δmex; conditions: Pseudomonas aeruginosa
[21] = test system: S. aureus MP-513 clinical cErm; test: MIC against S. aureus MP-513 clinical cErm; conditions: Staphylococcus aureus
[22] = test system: E. coli MP-9 ΔTolC; test: MIC against E. coli MP-9 ΔTolC; conditions: Escherichia coli
[23] = test system: S. aureus ATCC 29213; test: MIC against S. aureus ATCC 29213; conditions: Staphylococcus aureus
[24] = ATCC29213, S. aureus ATCC 29213, read-out: MIC

Measured: MIC

CSC1O[C@H]([C@H](NC(=O)[C@H]2NC[C@@H]3C[C@H]4C[C@H]4CO[C@H]32)[C@H](C)Cl)C(O)[C@@H](O)[C@H]1O (stereo in doubt) [FSA-507007]
4 µg/mL: [9]; C. difficile BAA 1805, read-out: MIC
8 µg/mL: [3]
> 64 µg/mL: [1]; E. coli ATCC 25922, read-out: MIC | [4]; K. pneumoniae ATCC 10031, read-out: MIC | [6]; P. aeruginosa MMX Mex parent strain, read-out: MIC | [7] | [8]; E. coli MMX TolC parent strain, read-out: MIC | [10]; E. faecalis MMX 847 Macrolide-Resistant (MacRes), read-out: MIC | [12]; P. aeruginosa ATCC 27853, read-out: MIC
2 µg/mL: [11]
0.5 µg/mL: [2]
≤ 0.06 µg/mL: [5]

CSC1O[C@H]([C@H](NC(=O)[C@@H]2[C@@H]3OCC=CC[C@H]3CN2C)[C@H](C)Sc2ccc(-c3cncnc3)cc2)C(O)[C@@H](O)[C@H]1O (some centres unmarked) [FSA-212034]
2 µg/mL: [13]
1 µg/mL: [3] | [18]
≤ 0.06 µg/mL: [15] | [5] | [16]
0.5 µg/mL: [9] | [19]
> 64 µg/mL: [17] | [6] | [8] | [10] | [12] | [20]
4 µg/mL: [14] | [11]

CSC1O[C@H]([C@H](NC(=O)[C@H]2NC[C@@H]3CNCCO[C@H]32)[C@H](C)Cl)C(O)[C@@H](O)[C@H]1O (some centres unmarked) [FSA-503001]
> 64 µg/mL: [1] | [2] | [4] | [19] | [21] | [12] | [22]

CSC1O[C@H]([C@H](NC(=O)[C@H]2NC[C@@H]3CN(C)CCO[C@H]32)[C@H](C)Cl)C(O)[C@@H](O)[C@H]1O (some centres unmarked) [FSA-503002]
> 64 µg/mL: [1] | [2] | [4] | [19] | [21] | [12] | [22]

CCCN1CCO[C@@H]2[C@H](CN[C@@H]2C(=O)N[C@H]([C@H](C)Cl)[C@H]2OC(SC)[C@H](O)[C@H](O)C2O)C1 (some centres unmarked) [FSA-503003]
> 64 µg/mL: [1] | [4] | [21] | [12] | [22]
4 µg/mL: [2] | [23]; [24]
2 µg/mL: [19]

CCNC(=O)N1CCO[C@@H]2[C@H](CN[C@@H]2C(=O)N[C@H]([C@H](C)Cl)[C@H]2OC(SC)[C@H](O)[C@H](O)C2O)C1 (some centres unmarked) [FSA-503004]
> 64 µg/mL: [1] | [2] | [4] | [23]; ATCC29213 | [19] | [21] | [12] | [22]

CSC1O[C@H]([C@H](NC(=O)[C@H]2NC[C@@H]3CN(Cc4ccnc(N)c4)CCO[C@H]32)[C@H](C)Cl)C(O)[C@@H](O)[C@H]1O (some centres unmarked) [FSA-504049]
8 µg/mL: [19]
14 µg/mL: [23]; [24]
> 64 µg/mL: [1] | [4] | [21] | [12] | [22]
